Patent publication US8048440B2, “Thermoplastic fluoropolymer-coated medical devices” (Gore Enterprise Holdings, Inc., priority 2002, dated 2011)
Structures can show the parent of a compound that is named as a salt.

Experiment: release of chlorhexidine dihydrochloride from the pocketed TFE/PMVE film composite in PBS, with needle puncture
Assay type: physicochemical
Settings: 1 cm by 1 cm composite in PBS at 37° C., punctured with 16-gauge needle
From the text: A polypropylene template with 0.7 mm diameter holes arranged in a rectangle pattern was made to facilitate manufacturing of the device. The holes were evenly spaced approximately 2 mm apart, from edge to edge. This template was placed on top of one of the TFE/PMVE extruded sheets, then dusted with chlorhexidine dihydrochloride. The template was removed, leaving a dot-matrix pattern of the drug on the surface of the extruded film. A second sheet of extruded polymer was gently placed on top of the first sheet. The composite of polymer sheets and drug was wrapped in aluminum foil, placed between two metal plates, heated in an oven set at 115° C. for 15 minutes, removed from the oven, immediately pressed between the two hot metal plates for 15 minutes, and then removed from the metal plates and aluminum foil. This process created encapsulated drug pockets between the polymer films. An approximately 1 cm by 1 cm square of finished material was placed into phosphate buffered saline (PBS) at 37° C., periodically sampled for antimicrobial content, and punctured with a 16-gauge needle. The release of the chlorhexidine dihydrochloride as a function of puncturing the composite and time in solution is shown in FIG. 7C. […] Thus, an additional dose of the drug can be delivered on demand as a consequence of puncturing drug pockets.

[H]/N=C(\N/C(=N/[H])NCCCCCCNC(=N)NC(=N)Nc1ccc(Cl)cc1)Nc1ccc(Cl)cc1 [chlorhexidine dihydrochloride]
release of chlorhexidine dihydrochloride as a function of puncturing and time in solution: continuously released at a minimal level until the composite was punctured with the needle
